Test results published in ChEMBL document CHEMBL1135155, “Optimization of the beta-aminoester class of factor Xa inhibitors. Part 2: Identification of FXV673 as a potent and selective inhibitor with excellent In vivo anticoagulant activity” (Bioorg Med Chem Lett, 2002).

Key:
Coagulation factor X = Coagulation factor X (Homo sapiens, UniProt P00742); assay: Inhibition of Coagulation factor Xa
Prothrombin = Prothrombin (Homo sapiens, UniProt P00734); assay: Inhibition of Coagulation factor IIa
Serine protease 1 = Serine protease 1 (Homo sapiens, UniProt P07477); assay: In vitro inhibitory potency against Trypsin
Sequence of Serine protease 1 (P07477 whole entry): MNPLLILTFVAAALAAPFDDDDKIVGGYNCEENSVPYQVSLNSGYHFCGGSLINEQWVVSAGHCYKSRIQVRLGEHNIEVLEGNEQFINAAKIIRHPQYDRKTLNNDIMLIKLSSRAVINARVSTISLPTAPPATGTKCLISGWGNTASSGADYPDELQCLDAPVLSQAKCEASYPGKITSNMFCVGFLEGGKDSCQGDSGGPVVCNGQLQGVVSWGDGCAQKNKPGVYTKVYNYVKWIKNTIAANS

[1] = Selectivity ratio as Ki of Serine proteases tissue plasminogen activator / Ki of factor Xa
[2] = target: Thrombin and coagulation factor X (Homo sapiens) (UniProt P00734+P00742); assay: Selectivity ratio as Ki of factor IIA / Ki of factor Xa; type: protein assay
Sequence of Thrombin and coagulation factor X (Homo sapiens) (P00742 whole entry, looked up, other chains not shown): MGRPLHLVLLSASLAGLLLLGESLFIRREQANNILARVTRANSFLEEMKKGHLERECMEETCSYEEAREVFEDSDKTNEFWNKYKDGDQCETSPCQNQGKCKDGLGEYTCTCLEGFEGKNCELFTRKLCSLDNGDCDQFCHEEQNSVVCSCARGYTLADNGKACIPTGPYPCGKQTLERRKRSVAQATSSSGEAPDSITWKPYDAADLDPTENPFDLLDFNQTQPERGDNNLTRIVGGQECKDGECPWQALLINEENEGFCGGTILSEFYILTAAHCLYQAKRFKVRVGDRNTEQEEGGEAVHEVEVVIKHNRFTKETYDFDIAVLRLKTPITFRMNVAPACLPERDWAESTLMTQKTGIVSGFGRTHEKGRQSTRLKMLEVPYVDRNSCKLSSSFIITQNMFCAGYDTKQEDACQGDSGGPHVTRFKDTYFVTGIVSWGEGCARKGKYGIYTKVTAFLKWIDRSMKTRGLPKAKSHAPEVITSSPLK

Homo sapiens = species: Homo sapiens; assay: Concentration at which compound inhibited coagulation of human plasma in vitro, doubling activated partial thromboplastin time (APTT); type: functional, cell-free
[3] = Selectivity ratio as Ki of Trypsin / Ki of factor Xa
Rattus norvegicus [4] = assay: Tested for maximal effective dose in ferrous-chloride induced arterial thrombosis by intravenous maintenance infusion; type: functional
Rattus norvegicus [5] = species: Rattus norvegicus; assay: Concentration at which compound inhibited coagulation of rat plasma in vitro, doubling activated partial thromboplastin time (APTT); type: functional, cell-free
[6] = Selectivity ratio as Ki of Activated protein C / Ki of factor Xa
Rattus norvegicus [7] = species: Rattus norvegicus; assay: Tested for maximal effective dose in ferrous-chloride induced arterial thrombosis by bolus infusion; type: functional; conditions: read-out: MED

Sequence of Coagulation factor X (P00742 41-179 limits assumed): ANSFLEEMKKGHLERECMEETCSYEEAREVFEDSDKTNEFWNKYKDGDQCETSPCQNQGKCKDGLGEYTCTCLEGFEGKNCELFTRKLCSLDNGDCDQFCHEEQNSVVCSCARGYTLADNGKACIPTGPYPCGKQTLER
Sequence of Coagulation factor X (P00742 235-488 limits assumed): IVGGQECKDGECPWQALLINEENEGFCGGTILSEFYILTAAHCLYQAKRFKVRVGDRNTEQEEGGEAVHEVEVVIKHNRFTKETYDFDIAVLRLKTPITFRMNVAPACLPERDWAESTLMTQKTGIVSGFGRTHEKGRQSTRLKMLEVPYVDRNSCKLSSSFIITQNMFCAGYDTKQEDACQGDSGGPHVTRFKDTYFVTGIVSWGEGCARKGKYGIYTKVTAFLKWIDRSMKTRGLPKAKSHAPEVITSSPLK

Row | Ki (Coagulation factor X) [µM] | Ki (Prothrombin) [µM] | Ki (Serine protease 1) [µM] | Compound | other results
1 | 0.046 | > 4 | 0.49 | COC(=O)[C@H](Cc1cccc(C(=N)N)c1)[C@@H](C)NC(=O)c1ccc(-c2ncc[nH]2)cc1 | 
2 | 0.0005 | > 4 | 0.076 | COC(=O)[C@H](Cc1cccc(C(=N)N)c1)[C@@H](C)NC(=O)c1ccc(-c2ccncc2)cc1 | 
3 | 0.006 | > 4 | > 2.9 | COC(=O)[C@H](Cc1cccc(C(=N)N)c1)[C@@H](C)NC(=O)c1ccc(-n2ccnc2)cc1 | 
4 | 0.008 | 4 | 0.368 | COC(=O)[C@H](Cc1cccc(C(=N)N)c1)[C@@H](C)NC(=O)c1ccc(-c2cccnc2)cc1 | 
5 | 0.002 | > 4 | 0.13 | COC(=O)[C@H](Cc1cccc(C(=N)N)c1)[C@@H](C)NC(=O)c1ccc(-c2ccc[n+]([O-])c2)cc1 | 
6 |  | > 4 | 0.301 | COC(=O)[C@H](Cc1cccc(C(=N)N)c1)[C@@H](C)NC(=O)c1ccc(-c2cc[n+]([O-])cc2)cc1 [OTAMIXABAN] | Ratio [1]: > 10000; Ratio [2]: > 10000; Concentration (Homo sapiens): 0.41 µM; Ratio [3]: 750; MED (Rattus norvegicus [4]): 5 µg/min/kg; Concentration (Rattus norvegicus [5]): 0.8 µM; Ratio [6]: > 10000; minimal effective dose (Rattus norvegicus [7]): 0.05 mg/kg
7 | 0.00058 | > 4 | 0.036 | COC(=O)[C@H](Cc1cccc(C(=N)N)c1)[C@@H](C)NC(=O)c1ccc(-c2cccc[n+]2[O-])cc1 | 
8 | 0.0027 | > 4 | 0.168 | COC(=O)[C@H](Cc1cccc(C(=N)N)c1)[C@@H](C)NC(=O)c1ccc(-c2cc[n+](C)cc2)cc1 | 
9 |  | 3.25 |  | COC(=O)[C@H](Cc1cccc(C(=N)N)c1)[C@@H](C)NC(=O)c1ccc(-c2ccccc2)cc1 | Ratio [1]: > 1000; Ratio [2]: 610; Concentration (Homo sapiens): 3.9 µM; Ratio [3]: 13; Concentration (Rattus norvegicus [5]): 5.1 µM; Ratio [6]: > 1000
10 | 0.0008 | > 4 | 0.052 | COC(=O)[C@H](Cc1cccc(C(=N)N)c1)[C@@H](C)NC(=O)c1ccc(-c2ccc[n+](C)c2)cc1 | 
11 | 0.003 | > 4 | 0.17 | COC(=O)[C@H](Cc1cccc(C(=N)N)c1)[C@@H](C)NC(=O)c1ccc(-c2c[nH]cn2)cc1 | 
12 | 0.0012 | > 4 | 0.036 | COC(=O)[C@H](Cc1cccc(C(=N)N)c1)[C@@H](C)NC(=O)c1ccc(-c2cccc[n+]2C)cc1 | 
13 | 0.00089 | 2.8 | 0.051 | COC(=O)[C@H](Cc1cccc(C(=N)N)c1)[C@@H](C)NC(=O)c1ccc(-c2ccccn2)cc1 | 
